Assays:
barnyardgrass [1] = assay: Test A pre-/postemergence herbicide test; format: in vivo, Echinochloa crus-galli
Method in brief: (§1)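 Formulated compound (non-phytotoxic solvent, surfactant) sprayed pre- onto soil of seeded loam/sand pots or post- onto seedlings at 1–2 leaves; ~10 d greenhouse; 0–100 visual control rating versus untreated.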

kochia = assay: Test A pre-/postemergence herbicide test; format: in vivo, Kochia scoparia
Method in brief: as §1

ragweed = assay: Test A pre-/postemergence herbicide test; format: in vivo, Ambrosia elatior
Method in brief: as §1

ryegrass, Italian = assay: Test A pre-/postemergence herbicide test; format: in vivo, Lolium multiflorum
Method in brief: as §1

giant foxtail = assay: Test A pre-/postemergence herbicide test; format: in vivo, Setaria faberii
Method in brief: as §1

pigweed = assay: Test A pre-/postemergence herbicide test; format: in vivo, Amaranthus retroflexus
Method in brief: as §1

wheat = assay: Test A pre-/postemergence herbicide test; format: in vivo, Triticum aestivum; conditions: Postemergence
Method in brief: as §1

corn = assay: Test A pre-/postemergence herbicide test; format: in vivo, Zea mays; conditions: Postemergence
Method in brief: as §1

blackgrass = assay: Test A postemergence herbicide test; format: in vivo, Alopecurus myosuroides
Method in brief: (§2)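 Young potted plants in a loam–sand mix, one- to two-leaf stage and 2–10 cm tall, receive the test chemical postemergence and stay in a greenhouse for approximately 10 days. Injury is then judged by eye against untreated plants, scored 0 (none) to 100 (complete control).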

galium = assay: Test A postemergence herbicide test; format: in vivo, Galium aparine
Method in brief: as §2

rice = assay: Test B flooded paddy test; format: in vivo, Oryza sativa; conditions: 500 g ai/ha, Flood; scale of 0 to 100 where 0 is no effect and 100 is complete control
Method in brief: (§3)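 Scored visually 0–100 (0 no effect, 100 complete control) versus controls after 13 to 15 greenhouse days. Treatment: compound added to paddy water kept 3 cm above soil, on 2-leaf-stage plants.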

sedge, umbrella = assay: Test B flooded paddy test; format: in vivo, Cyperus difformis; conditions: 500 g ai/ha, Flood; scale of 0 to 100 where 0 is no effect and 100 is complete control
Method in brief: as §3

ducksalad = assay: Test B flooded paddy test; format: in vivo, Heteranthera limosa; conditions: 500 g ai/ha, Flood; scale of 0 to 100 where 0 is no effect and 100 is complete control
Method in brief: as §3

barnyardgrass [2] = assay: Test B flooded paddy test; format: in vivo, Echinochloa crus-galli; conditions: 500 g ai/ha, Flood; scale of 0 to 100 where 0 is no effect and 100 is complete control
Method in brief: as §3

[3] = 125 g ai/ha, visual rating, 0 to 100 scale, 0 no effect, 100 complete control, approximately 10 days, preemergence
[4] = Postemergence, 125 g ai/ha, 0 to 100 scale, 0 no effect, 100 complete control
[5] = preemergence, 500 g ai/ha, 0 to 100 scale
[6] = 125 g ai/ha, 0 to 100 scale, 0 no effect, 100 complete control
[7] = Postemergence, 125 g ai/ha, visual rating on 0 to 100 scale (0 no effect, 100 complete control), approx. 10 days
[8] = Postemergence, 500 g ai/ha, 0 to 100 scale (0 no effect, 100 complete control)
[9] = Preemergence, 125 g ai/ha, 0 to 100 scale where 0 is no effect and 100 is complete control
[10] = Preemergence, 500 g ai/ha, visual rating on 0 to 100 scale (0 no effect, 100 complete control)
[11] = 125 g ai/ha, visual rating on 0 to 100 scale (0 no effect, 100 complete control), approx. 10 days
[12] = 500 g ai/ha, 0 to 100 scale (0 no effect, 100 complete control)

Structure (SMILES): Cc1ccc(C2CNC(=O)C2C(=O)Nc2cccc(F)c2F)cc1F (racemic) [Compound 146]
- Plant response rating, Barnyardgrass (barnyardgrass [1]; [3]): 90
- Plant response rating, Barnyardgrass (barnyardgrass [1]; [4]): 90
- Barnyardgrass plant response rating (0 to 100 scale, 0 is no effect, 100 is complete control) (barnyardgrass [1]; Postemergence, 500 g ai/ha): 90
- Plant response rating, Barnyardgrass (barnyardgrass [1]; preemergence, 500 g ai/ha, 0 to 100 scale (0 no effect, 100 complete control)): 90
- Plant response rating, Kochia (kochia; [3]): 0
- Plant response rating, Kochia (kochia; [4]): 0
- Kochia plant response rating (0 to 100 scale, 0 is no effect, 100 is complete control) (kochia; Postemergence, 500 g ai/ha): 70
- Plant response rating, Kochia (kochia; [5]): 30
- Plant response rating, Ragweed (ragweed; [3]): 0
- Plant response rating, Ragweed (ragweed; [4]): 0
- Ragweed plant response rating (0 to 100 scale, 0 is no effect, 100 is complete control) (ragweed; Postemergence, 500 g ai/ha): 60
- Plant response rating, Ragweed (ragweed; [5]): 30
- Plant response rating, Ryegrass, Italian (ryegrass, Italian; [3]): 0
- Plant response rating, Ryegrass, Italian (ryegrass, Italian; [4]): 20
- Ryegrass, Italian plant response rating (0 to 100 scale, 0 is no effect, 100 is complete control) (ryegrass, Italian; Postemergence, 500 g ai/ha): 60
- Plant response rating, Ryegrass, Italian (ryegrass, Italian; [5]): 40
- Plant response rating, Foxtail, Giant (giant foxtail; [3]): 80
- Plant response rating, Foxtail, Giant (giant foxtail; [4]): 0
- Foxtail, Giant plant response rating (0 to 100 scale, 0 is no effect, 100 is complete control) (giant foxtail; Postemergence, 500 g ai/ha): 70
- Plant response rating, Foxtail, Giant (giant foxtail; [5]): 90
- Plant response rating, Pigweed (pigweed; [3]): 0
- Plant response rating, Pigweed (pigweed; [4]): 0
- Pigweed plant response rating (0 to 100 scale, 0 is no effect, 100 is complete control) (pigweed; Postemergence, 500 g ai/ha): 0
- Plant response rating, Pigweed (pigweed; [5]): 0
- Plant response rating, Wheat (wheat; [6]): 0
- Wheat plant response rating (0 to 100 scale, 0 is no effect, 100 is complete control) (wheat; 500 g ai/ha): 70
- Plant response rating, Corn (corn; [6]): 0
- Corn plant response rating (0 to 100 scale, 0 is no effect, 100 is complete control) (corn; 500 g ai/ha): 50
- Plant response rating, Blackgrass (blackgrass; [6]): 30
- Blackgrass plant response rating (0 to 100 scale, 0 is no effect, 100 is complete control) (blackgrass; 500 g ai/ha): 70
- Plant response rating, Galium (galium; [6]): 40
- Galium plant response rating (0 to 100 scale, 0 is no effect, 100 is complete control) (galium; 500 g ai/ha): 70
- Plant response rating, Rice (rice): 0
- Plant response rating, Sedge, Umbrella (sedge, umbrella): 0
- Plant response rating, Ducksalad (ducksalad): 100
- Plant response rating, Barnyardgrass (barnyardgrass [2]): 80

Structure (SMILES): CCN1CC(c2ccc(C(F)(F)F)cc2)C(C(=O)Nc2ccccc2F)C1=O (stereo not drawn) [Compound 335]
- Plant response rating, Barnyardgrass (barnyardgrass [1]; [7]): 20
- Plant response rating, Barnyardgrass (barnyardgrass [1]; [8]): 60
- Plant response rating, Barnyardgrass (barnyardgrass [1]; [9]): 0
- Barnyardgrass plant response rating (barnyardgrass [1]; [10]): 50
- Plant response rating, Kochia (kochia; [7]): 0
- Plant response rating, Kochia (kochia; [8]): 0
- Plant response rating, Kochia (kochia; [9]): 40
- Kochia plant response rating (kochia; [10]): 60
- Plant response rating, Ragweed (ragweed; [7]): 0
- Plant response rating, Ragweed (ragweed; [8]): 0
- Plant response rating, Ragweed (ragweed; [9]): 0
- Ragweed plant response rating (ragweed; [10]): 0
- Plant response rating, Ryegrass, Italian (ryegrass, Italian; [7]): 0
- Plant response rating, Ryegrass, Italian (ryegrass, Italian; [8]): 0
- Plant response rating, Ryegrass, Italian (ryegrass, Italian; [9]): 0
- Ryegrass, Italian plant response rating (ryegrass, Italian; [10]): 0
- Plant response rating, Foxtail, Giant (giant foxtail; [7]): 70
- Plant response rating, Foxtail, Giant (giant foxtail; [8]): 90
- Plant response rating, Foxtail, Giant (giant foxtail; [9]): 70
- Foxtail, Giant plant response rating (giant foxtail; [10]): 90
- Plant response rating, Pigweed (pigweed; [7]): 0
- Plant response rating, Pigweed (pigweed; [8]): 0
- Plant response rating, Pigweed (pigweed; [9]): 0
- Pigweed plant response rating (pigweed; [10]): 30
- Plant response rating, Wheat (wheat; [11]): 0
- Plant response rating, Wheat (wheat; [12]): 20
- Plant response rating, Corn (corn; [11]): 0
- Plant response rating, Corn (corn; [12]): 0
- Plant response rating, Blackgrass (blackgrass; [11]): 0
- Plant response rating, Blackgrass (blackgrass; [12]): 20
- Plant response rating, Galium (galium; [11]): 0
- Plant response rating, Galium (galium; [12]): 0
- Plant response rating, Rice (rice): 0
- Plant response rating, Sedge, Umbrella (sedge, umbrella): 0
- Plant response rating, Ducksalad (ducksalad): 65
- Plant response rating, Barnyardgrass (barnyardgrass [2]): 0

Reference: patent US10294202B2, “Pyrrolidinones as herbicides” (FMC Corporation, priority 2013, dated 2019)
